The IC50 is the concentration that inhibits the measured activity by half. Lower therefore signals greater potency.

Where only a bound is given, the exact number is not on record here.

Results on two compounds are retold here after patent publication US11576978B2, “Hemoglobin-based therapeutic agents” (priority 2019, dated 2023).

Series [1] can be described thus: Preliminary repeat-dose toxicity in normal mice. In kind it is in vivo. As to conditions: weekly, four IV doses, BALB/c mice. As to the method: The toxicity of Hb-SMCC-DM1 with an (Prepared using one-step method in Example 5, MDR of 3.0) is evaluated in repeat-dose study in normal BALB/c mice. Briefly, mice (n=3, females/group) are administered with unconjugated-DM1 and Hb-SMCC-DM1 weekly for a total of four IV doses at PBS, 2.5 mg/kg of unconjugated-DM1, and 42, 84, 126, and 168 mg/kg of Hb-SMCC-DM1, respectively. Body weights are recorded at every 3 days.

The next series relates to cancer cell lines. Put plainly: MTT cytotoxicity assay on cancer cell lines. In kind it is cell-based. The note with it: various cancer cells. As to the method:
Cancer cells are cultured in medium (Invitrogen) with 10% Fetal bovine serum (FBS), 100 U/mL penicillin and 100 μg/mL streptomycin at 37° C. For normoxic condition, cells are incubated with ambient O2 concentration and 5% CO2, for hypoxic condition, cells are incubated with 0.1-0.5% O2 (Quorum FC-7 automatic CO2/O2/N2 gas mixer) and 5% CO2.
Cell viability is measured using a 3-(4,5-dimethylthiazol-2-yl)-2,5-diphenyltetrazolium bromide (MTT) proliferation assay. Briefly, cancer cell lines (e.g. HCT116, 4T1, and SMMC7721) are seeded in a 96-well flat-bottomed microplate and cultured in 100 μL growth medium at 37° C. and 5% CO2 for 24 h. Cell culture medium in each well is then replaced by 100 μL cell growth medium, containing either no drug, DM1 alone or modified hemoglobin-based cytotoxic agents at series concentrations. Incubation of drugs for 24 h, cell culture medium containing drugs is replaced by 100 μL MTT labeling reagent (1 mg/mL in PBS solution) in each well and incubation for further 4 h at 37° C. The medium is removed gently, and 50 μL DMSO is then added to each well as solubilizing agent to dissolve the formazan crystals completely. The absorbance at the wavelength of 570 nm is measured by iMark Microplate Absorbance Spectrophotometer, and each data point represents the means±SD from triplicate wells.
(Tetrazolium dyes change colour on reduction, which living cells bring about.)

A short description of series [2]: Biodistribution of AF750-labeled agents in normal mice. It counts as in vivo, normal BALB/c mice. As to conditions: 72 h post-injection, 40 mg/kg intravenously. As to the method: Biodistribution of Hb-SMCC-DM1 (Prepared using one-step method in Example 5, MDR of 3.0) in normal mice is performed by using normal mice model. Briefly, normal BALB/c mice are injected intravenously with 40 mg/kg of Hb-AF750 and Hb-SMCC-DM1-AF750, respectively, and imaged serially from 2 hour to 72 hour post-injection. The mice are sacrificed at 72 hour of drug administration to collect various kinds of organ for imaging.

Take `COc1cc2cc(c1Cl)N(C)C(=O)C[C@H](OC(=O)[C@H](C)N(C)C(=O)CCS)[C@]1(C)O[C@H]1[C@H](C)[C@@H]1C[C@@](O)(NC(=O)O1)[C@H](OC)/C=C/C=C(\C)C2` [unconjugated-DM1, mertansine (DM1)]: the tolerated dose result in series [1] is “up to 2.5 mg/kg”. Consider hemoglobin, for which the IC50 with cancer cell lines was more than 10 µM. Moreover, the “location of fluorescence signal (biodistribution)” value in series [2] is “mainly in liver and kidney”.
